These are literature values, as cited in patent EP4632015A1, “COMPOUNDS FOR USE IN IN VIVO FLUORESCENCE-LIFETIME IMAGING” (Université de Bourgogne, priority 2024, dated 2025).

The conditions of this data set: in a biological environment.

As to `CC1(C)C(/C=C/C=C/C=C/C=C2\N(CCCCS(=O)(=O)[O-])c3ccc4ccccc4c3C2(C)C)=[N+](CCCCS(=O)(=O)[O-])c2ccc3ccccc3c21.[Na+]` [ICG], the lifetime entry was “less than 1 ns”. Take `CC1(C)C(=CC=C2CCCC(C=CC3=[N+](CCCCCC(=O)[O-])c4ccc(S(=O)(=O)[O-])cc4C3(C)C)=C2Oc2ccc(S(=O)(=O)[O-])cc2)N(CCCCS(=O)(=O)[O-])c2ccc(S(=O)(=O)[O-])cc21.[Na+].[Na+].[Na+].[Na+]` [IRDye800CW]: the lifetime entry is “less than 1 ns”.
